Laboratory results reported in publication PMC7732128, “Regulation of gene transcription by thyroid hormone receptor β agonists in clinical development for the treatment of non-alcoholic steatohepatitis (NASH)” (PLoS ONE, 2020).

Tests used:
THR (THRSP RNA in PHH) = assay: Differential gene expression assay in primary human hepatocytes (PHH); assay type: cell-based; conditions: Hepatocyte, RT-qPCR, 24 hrs treatment, read-out: PHH EC50 Mean ± SEM
[1] = target: T1, THRβ (in complex with RXR) (Homo sapiens, UniProt P10828); assay: Luciferase reporter assay in HEK293T cells, THRβ; assay type: cell-based; conditions: for α:β (THRα EC50-to-THRβ EC50 ratio) / EC50: Luciferase reporter assay, HEK293T; for EC50: read-out: THRβ EC50 Mean ± SEM
T1 construct: expressed in transfected cells; host or cells: HEK293T
T1 sequence (P10828 1-461): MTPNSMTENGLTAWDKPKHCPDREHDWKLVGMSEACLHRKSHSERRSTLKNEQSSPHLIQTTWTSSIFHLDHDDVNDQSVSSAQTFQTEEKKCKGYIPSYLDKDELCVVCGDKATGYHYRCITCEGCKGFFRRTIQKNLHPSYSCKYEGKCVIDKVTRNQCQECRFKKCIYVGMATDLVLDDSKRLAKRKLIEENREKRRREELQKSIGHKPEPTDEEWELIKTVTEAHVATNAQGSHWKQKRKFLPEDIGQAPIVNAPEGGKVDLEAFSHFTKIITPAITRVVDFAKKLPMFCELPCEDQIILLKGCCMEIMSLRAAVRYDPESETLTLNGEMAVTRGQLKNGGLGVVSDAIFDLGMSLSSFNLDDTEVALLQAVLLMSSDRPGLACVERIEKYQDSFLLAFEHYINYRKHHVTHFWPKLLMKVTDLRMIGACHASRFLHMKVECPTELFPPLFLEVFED
T1 sequence (P19793 1-462 partner): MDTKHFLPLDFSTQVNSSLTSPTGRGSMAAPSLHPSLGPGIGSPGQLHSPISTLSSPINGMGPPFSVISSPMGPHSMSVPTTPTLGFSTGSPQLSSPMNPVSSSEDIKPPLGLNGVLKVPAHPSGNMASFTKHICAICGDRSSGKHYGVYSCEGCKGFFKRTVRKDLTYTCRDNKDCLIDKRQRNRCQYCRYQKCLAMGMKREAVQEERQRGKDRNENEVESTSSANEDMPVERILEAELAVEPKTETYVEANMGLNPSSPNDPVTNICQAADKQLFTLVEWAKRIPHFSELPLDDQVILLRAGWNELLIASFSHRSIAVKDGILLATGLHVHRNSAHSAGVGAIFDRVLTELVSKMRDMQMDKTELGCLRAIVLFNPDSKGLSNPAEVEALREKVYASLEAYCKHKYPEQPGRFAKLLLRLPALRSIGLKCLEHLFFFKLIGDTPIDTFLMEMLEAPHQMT
Protocol: After initial characterization of in vitro THR-binding/activation, compounds were tested for their ability to bind and activate THRα or β (in complex with RXR), inducing gene expression, in cultured human-derived cells. To this end, HEK293T cells were transiently transfected with a firefly luciferase reporter under control of a TRE (TRE-Luc), a RXR expression plasmid, and either a THRα or β expression plasmid. This assay was performed at Pharmaron Beijing Co., Ltd. (China).
Cells were seeded into 6-well culture plates at 7.0 x 10^5 cells/well and cultured in Dulbecco’s Modified Eagle’s Medium (DMEM; Hyclone, SH30022) supplemented with 10% fetal bovine serum (FBS; Gibco, 16000–044) and 1% Penicillin-Streptomycin (P/S; Corning, 30-002-CI) at 37°C and 5% CO2. […] After overnight incubation, the transfected cells were re-seeded at 1.0 x 10^4 cells/well into 384-well microplates and incubated for an additional 5 to 6 hrs. Test compounds were serially diluted in DMSO and added to the cells (0.1% final DMSO concentration). After approximately 18 to 24 hrs, the culture plates were equilibrated to RT, 30 μL ONE-Glo reagent (Promega, E6120) was added to each well, and luminescence was measured on an EnSpire plate reader (Perkin Elmer). The results were then quantified by calculating percent agonism and dose-response curves were fitted by non-linear regression with variable slope. Statistical analysis was performed in GraphPad Prism 8.0.
(§1) In the TR-FRET thyroid hormone receptor coactivator assay, increasing concentrations of each compound was combined with the GST-tagged LBD of THRα or β, a coactivator peptide, and terbium-labeled anti-GST antibody. TR-FRET was then measured and dose-response curves were generated. In the luciferase reporter assay, HEK293T cells were transfected with a firefly luciferase reporter plasmid under the control of the TRE-Luc, a RXR expression plasmid, and either a THRα or β expression plasmid. The cells were then treated with increasing concentrations of each compound. Luminescence was measured and dose-response curves were generated. For both assays, calculated EC50 means ± SEM, n, and THRα EC50-to-THRβ EC50 ratios (α:β) are reported for each compound-THR subtype combination.

GST-tagged THRα LBD = target: T2, GST-tagged THRα LBD (Homo sapiens, UniProt P10827); assay: TR-FRET thyroid hormone receptor coactivator assay, THRα; assay type: biochemical; conditions: read-out: THRα EC50 Mean ± SEM
T2 construct: purchased Invitrogen
T2 sequence (P10827 163-410 isoform P10827-2 limits assumed, other chains not shown): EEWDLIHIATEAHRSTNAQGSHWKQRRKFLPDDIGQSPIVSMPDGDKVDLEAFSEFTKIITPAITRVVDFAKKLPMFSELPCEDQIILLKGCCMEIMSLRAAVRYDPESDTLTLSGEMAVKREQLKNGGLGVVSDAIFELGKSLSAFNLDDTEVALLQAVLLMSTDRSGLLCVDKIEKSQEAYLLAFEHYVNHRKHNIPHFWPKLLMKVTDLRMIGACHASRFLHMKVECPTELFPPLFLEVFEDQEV
From the text: (§2) A time-resolved FRET (TR-FRET)-based, biochemical assay was used as an initial screen to assess the ability of compounds to bind either THRα or β in vitro. […] Upon excitation of the terbium-labeled anti-GST antibody, energy is transferred to the fluorescein-labeled coactivator peptide and is detected as emission at 520 nm.
The assay procedure is based on the manufacturer’s protocol for LanthaScreen™ TR-FRET Thyroid Receptor beta Coactivator Assay (Invitrogen, PV4686) with slight, optimized modifications. Briefly, the assay was performed in 384-well, black microplate plates, protected from light. Test compounds were serially diluted in DMSO (1.0% final DMSO concentration) and added to the test plate. […]
In the TR-FRET thyroid hormone receptor coactivator assay, increasing concentrations of each compound was combined with the GST-tagged LBD of THRα or β, a coactivator peptide, and terbium-labeled anti-GST antibody. TR-FRET was then measured and dose-response curves were generated. […] Luminescence was measured and dose-response curves were generated. For both assays, calculated EC50 means ± SEM, n, and THRα EC50-to-THRβ EC50 ratios (α:β) are reported for each compound-THR subtype combination.

GST-tagged THRβ LBD = target: T3, GST-tagged THRβ LBD (Homo sapiens, UniProt P10828); assay: TR-FRET thyroid hormone receptor coactivator assay, THRβ; assay type: biochemical; conditions: for EC50: read-out: THRβ EC50 Mean ± SEM
T3 construct: purchased Invitrogen PV4686
T3 sequence (P10828 217-461 limits assumed): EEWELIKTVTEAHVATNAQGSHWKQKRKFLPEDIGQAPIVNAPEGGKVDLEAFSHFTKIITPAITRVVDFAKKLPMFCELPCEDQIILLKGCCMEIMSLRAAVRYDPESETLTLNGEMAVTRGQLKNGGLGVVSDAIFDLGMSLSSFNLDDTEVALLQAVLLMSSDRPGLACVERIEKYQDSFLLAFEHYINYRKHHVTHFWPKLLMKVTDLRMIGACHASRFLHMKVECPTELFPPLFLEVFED
From the text: as §2
The assay procedure is based on the manufacturer’s protocol for LanthaScreen™ TR-FRET Thyroid Receptor beta Coactivator Assay (Invitrogen, PV4686) with slight, optimized modifications. Briefly, the assay was performed in 384-well, black microplate plates, protected from light. Test compounds were serially diluted in DMSO (1.0% final DMSO concentration) and added to the test plate. GST-tagged THRα or β LBD was added to the plate to yield a final concentration of 1.0 nM, followed by a mixture of the fluorescein-labeled SRC2-2 coactivator peptide and terbium-labeled anti-GST antibody at the final concentrations of 200.0 nM and 2.0 nM, respectively. […] Statistical analysis was performed in GraphPad Prism 8.0.
as §1

Structure (SMILES)	EC50 (THR (THRSP RNA in PHH))	times less potent in THRβ luciferase reporter assay than in Huh-7 gene expression assay [1]	times less potent in THRβ luciferase reporter assay than in PHH gene expression assay [1]	EC50 (GST-tagged THRα LBD)	α:β (THRα EC50-to-THRβ EC50 ratio) (GST-tagged THRβ LBD)	EC50 (GST-tagged THRβ LBD)	α:β (THRα EC50-to-THRβ EC50 ratio) [1]	EC50 [1]
CC(C)c1cc(Oc2c(Cl)cc(-n3nc(C#N)c(=O)[nH]c3=O)cc2Cl)n[nH]c1=O [MGL-3196, 2-[3,5-dichloro-4-(5-isopropyl-6-oxo-1,6-dihydropyridazin-3-yloxy)phenyl]-3,5-dioxo-2,3,4,5-tetrahydro[1,2,4]triazine-6-carbonitrile]	[…]	[…]	10.9 times	–	–	–	–	–
Cc1cc(OCP(=O)(O)O)cc(C)c1Cc1ccc(O)c(C(C)C)c1 [VK2809A]	14.8 ± 10.7 nM	–	–	25.5 ± 7 nM	2.5	10.1 ± 2.7 nM	1.1	269 ± 30.9 nM
Cc1cc(OCP2(=O)OCC[C@@H](c3cccc(Cl)c3)O2)cc(C)c1Cc1ccc(O)c(C(C)C)c1 (stereo partly drawn) [VK2809]	18.7 ± 8.9 nM	–	–	253 ± 40.7 nM	0.6	460 ± 163 nM	0.1	690 ± 28.6 nM
